Data taken from PMC9604325 (International Journal of Molecular Sciences, 2022).

What was measured:
HT22 cells = experiment: Intracellular calcium response of Fluo3-loaded HT22 cells to cholinergic agonists; type: cell-based, mouse; settings: for intracellular calcium response in the majority of the cells: Fluo3-loaded HT22 cells
Protocol: (§1) Cytosolic Ca^2+ imaging was assessed in the HT-22 cell culture with the fluorescent probe Fluo3-AM. […] The untread cells were regarded as the controls. […] Then, the cells were washed once with 1 mL of MLocke’s K5 buffer, and the 35 mm culture dishes were placed in the thermostatic plate at 37 °C (Warner Instrument Co., Hamden, CT, USA) of the Nikon Diaphot 300 inverted epifluorescence microscope (Tokyo, Japan) with an NCF Plan ELWD 40× objective (the pixel size of the images shown in this work was 0.2 μm). The images of the Fluo3-loaded cells were acquired with the Hamamatsu Orca-R^2 CCD camera (binning mode 2 × 2) with an excitation filter of 470 nm, a dichroic mirror of 510 nm with an emission filter of 520 nm, and a 0.3 s exposure time. […] The depletion of the Ca^2+ stores was triggered by adding 2 μM of the SERCA pump blocker Tg plus ethylene glycol tetraacetic acid (1 mM), in a Ca^2+-free Mlocke’s K5 buffer. Then, the SOCE was measured after the addition of 3 mM of CaCl2 to the Tg-containing medium. […] The activity of the RyR Ca^2+-leak channels was evaluated by incubation with 100 μM of the RyR antagonist ryanodine for 1 h in the HT-22 culture media. In all experiments with antagonists, we performed the respective dimethylsulfoxide vehicle controls.
Supplementary Figure S8. Representative kinetic traces of the average fluorescence intensity of Fluo3-loaded
HT22 cells (Ft/F0) recorded over time every 15 s intervals
Ca2+ entry mediated by cholinergic receptors. The data shown are the means ±SEM of n =16 cells.
(1 picture or pasted object on this page, not shown here)

HT-22 cells [1] = experiment: Internalization of Aβ(1-42) in living HT-22 cells (red fluorescence of Aβ(1-42)*555, calibration curve); type: cell-based, mouse; settings: 2 μM Aβ(1-42) total (unlabeled plus Aβ(1-42)*555) in culture medium, 37 °C, 5% CO2, red fluorescence microscopy, calibration with Aβ(1-42)*555 in fixed permeabilized cells, mean ± SEM
Protocol: Then, the cells were washed once with 1 mL of MLocke’s K5, and the 35 mm dishes were placed in the holder of the microscope at 37 °C for RF imaging. The fluorescence microscopy images of the HT-22 cells were acquired with a Hamamatsu Orca-R^2 CCD camera (binning mode 2 × 2) camera (Hamamatsu, Hamamatsu-city, Japan) attached to a Nikon Diaphot 300 epifluorescence microscope (Tokyo, Japan) with an NCF Plan ELWD 40× objective, using an excitation filter of 556 nm and a dichroic mirror of 580 nm with an emission filter of 590 nm, and a 0.06 s exposure time. The ROI tool of the HCImage software was used for the quantitative analysis. The average fluorescence intensity readings per pixel in HT-22 cells were taken from several fields for a total number of 80 cells and after the subtraction of the autofluorescence. […]
Supplementary Figure S1. Calibration data were obtained with […]
medium of fixed and permeabilized HT-22 cells to calculate the internalized concentration of Aβ(1–42) in living HT-22 cells. The […]
monomers/L. The results shown are the mean ± SEM of
(also on this page, place not known: Fluorescence Intensity per pixel (A.U.))

[2] = test system: store-operated calcium entry (SOCE) in HT-22 cells; experiment: SOCE Ca2+ imaging in Fluo3-loaded HT-22 cells (Tg-induced store release, then Ca2+ entry); type: cell-based, mouse
Protocol: as §1

RyR = biological target: T1, RyR (Mus musculus, UniProt E9Q401); experiment: Tg-induced Ca2+ release from stores in Fluo3-loaded HT-22 cells with the RyR antagonist ryanodine; type: cell-based
T1 construct: incubation with 100 μM of the RyR antagonist ryanodine for 1 h in the HT-22 culture media; endogenous in cells; host or cells: HT-22 (mouse hippocampal cell line)
T1 sequence (E9Q401 whole entry): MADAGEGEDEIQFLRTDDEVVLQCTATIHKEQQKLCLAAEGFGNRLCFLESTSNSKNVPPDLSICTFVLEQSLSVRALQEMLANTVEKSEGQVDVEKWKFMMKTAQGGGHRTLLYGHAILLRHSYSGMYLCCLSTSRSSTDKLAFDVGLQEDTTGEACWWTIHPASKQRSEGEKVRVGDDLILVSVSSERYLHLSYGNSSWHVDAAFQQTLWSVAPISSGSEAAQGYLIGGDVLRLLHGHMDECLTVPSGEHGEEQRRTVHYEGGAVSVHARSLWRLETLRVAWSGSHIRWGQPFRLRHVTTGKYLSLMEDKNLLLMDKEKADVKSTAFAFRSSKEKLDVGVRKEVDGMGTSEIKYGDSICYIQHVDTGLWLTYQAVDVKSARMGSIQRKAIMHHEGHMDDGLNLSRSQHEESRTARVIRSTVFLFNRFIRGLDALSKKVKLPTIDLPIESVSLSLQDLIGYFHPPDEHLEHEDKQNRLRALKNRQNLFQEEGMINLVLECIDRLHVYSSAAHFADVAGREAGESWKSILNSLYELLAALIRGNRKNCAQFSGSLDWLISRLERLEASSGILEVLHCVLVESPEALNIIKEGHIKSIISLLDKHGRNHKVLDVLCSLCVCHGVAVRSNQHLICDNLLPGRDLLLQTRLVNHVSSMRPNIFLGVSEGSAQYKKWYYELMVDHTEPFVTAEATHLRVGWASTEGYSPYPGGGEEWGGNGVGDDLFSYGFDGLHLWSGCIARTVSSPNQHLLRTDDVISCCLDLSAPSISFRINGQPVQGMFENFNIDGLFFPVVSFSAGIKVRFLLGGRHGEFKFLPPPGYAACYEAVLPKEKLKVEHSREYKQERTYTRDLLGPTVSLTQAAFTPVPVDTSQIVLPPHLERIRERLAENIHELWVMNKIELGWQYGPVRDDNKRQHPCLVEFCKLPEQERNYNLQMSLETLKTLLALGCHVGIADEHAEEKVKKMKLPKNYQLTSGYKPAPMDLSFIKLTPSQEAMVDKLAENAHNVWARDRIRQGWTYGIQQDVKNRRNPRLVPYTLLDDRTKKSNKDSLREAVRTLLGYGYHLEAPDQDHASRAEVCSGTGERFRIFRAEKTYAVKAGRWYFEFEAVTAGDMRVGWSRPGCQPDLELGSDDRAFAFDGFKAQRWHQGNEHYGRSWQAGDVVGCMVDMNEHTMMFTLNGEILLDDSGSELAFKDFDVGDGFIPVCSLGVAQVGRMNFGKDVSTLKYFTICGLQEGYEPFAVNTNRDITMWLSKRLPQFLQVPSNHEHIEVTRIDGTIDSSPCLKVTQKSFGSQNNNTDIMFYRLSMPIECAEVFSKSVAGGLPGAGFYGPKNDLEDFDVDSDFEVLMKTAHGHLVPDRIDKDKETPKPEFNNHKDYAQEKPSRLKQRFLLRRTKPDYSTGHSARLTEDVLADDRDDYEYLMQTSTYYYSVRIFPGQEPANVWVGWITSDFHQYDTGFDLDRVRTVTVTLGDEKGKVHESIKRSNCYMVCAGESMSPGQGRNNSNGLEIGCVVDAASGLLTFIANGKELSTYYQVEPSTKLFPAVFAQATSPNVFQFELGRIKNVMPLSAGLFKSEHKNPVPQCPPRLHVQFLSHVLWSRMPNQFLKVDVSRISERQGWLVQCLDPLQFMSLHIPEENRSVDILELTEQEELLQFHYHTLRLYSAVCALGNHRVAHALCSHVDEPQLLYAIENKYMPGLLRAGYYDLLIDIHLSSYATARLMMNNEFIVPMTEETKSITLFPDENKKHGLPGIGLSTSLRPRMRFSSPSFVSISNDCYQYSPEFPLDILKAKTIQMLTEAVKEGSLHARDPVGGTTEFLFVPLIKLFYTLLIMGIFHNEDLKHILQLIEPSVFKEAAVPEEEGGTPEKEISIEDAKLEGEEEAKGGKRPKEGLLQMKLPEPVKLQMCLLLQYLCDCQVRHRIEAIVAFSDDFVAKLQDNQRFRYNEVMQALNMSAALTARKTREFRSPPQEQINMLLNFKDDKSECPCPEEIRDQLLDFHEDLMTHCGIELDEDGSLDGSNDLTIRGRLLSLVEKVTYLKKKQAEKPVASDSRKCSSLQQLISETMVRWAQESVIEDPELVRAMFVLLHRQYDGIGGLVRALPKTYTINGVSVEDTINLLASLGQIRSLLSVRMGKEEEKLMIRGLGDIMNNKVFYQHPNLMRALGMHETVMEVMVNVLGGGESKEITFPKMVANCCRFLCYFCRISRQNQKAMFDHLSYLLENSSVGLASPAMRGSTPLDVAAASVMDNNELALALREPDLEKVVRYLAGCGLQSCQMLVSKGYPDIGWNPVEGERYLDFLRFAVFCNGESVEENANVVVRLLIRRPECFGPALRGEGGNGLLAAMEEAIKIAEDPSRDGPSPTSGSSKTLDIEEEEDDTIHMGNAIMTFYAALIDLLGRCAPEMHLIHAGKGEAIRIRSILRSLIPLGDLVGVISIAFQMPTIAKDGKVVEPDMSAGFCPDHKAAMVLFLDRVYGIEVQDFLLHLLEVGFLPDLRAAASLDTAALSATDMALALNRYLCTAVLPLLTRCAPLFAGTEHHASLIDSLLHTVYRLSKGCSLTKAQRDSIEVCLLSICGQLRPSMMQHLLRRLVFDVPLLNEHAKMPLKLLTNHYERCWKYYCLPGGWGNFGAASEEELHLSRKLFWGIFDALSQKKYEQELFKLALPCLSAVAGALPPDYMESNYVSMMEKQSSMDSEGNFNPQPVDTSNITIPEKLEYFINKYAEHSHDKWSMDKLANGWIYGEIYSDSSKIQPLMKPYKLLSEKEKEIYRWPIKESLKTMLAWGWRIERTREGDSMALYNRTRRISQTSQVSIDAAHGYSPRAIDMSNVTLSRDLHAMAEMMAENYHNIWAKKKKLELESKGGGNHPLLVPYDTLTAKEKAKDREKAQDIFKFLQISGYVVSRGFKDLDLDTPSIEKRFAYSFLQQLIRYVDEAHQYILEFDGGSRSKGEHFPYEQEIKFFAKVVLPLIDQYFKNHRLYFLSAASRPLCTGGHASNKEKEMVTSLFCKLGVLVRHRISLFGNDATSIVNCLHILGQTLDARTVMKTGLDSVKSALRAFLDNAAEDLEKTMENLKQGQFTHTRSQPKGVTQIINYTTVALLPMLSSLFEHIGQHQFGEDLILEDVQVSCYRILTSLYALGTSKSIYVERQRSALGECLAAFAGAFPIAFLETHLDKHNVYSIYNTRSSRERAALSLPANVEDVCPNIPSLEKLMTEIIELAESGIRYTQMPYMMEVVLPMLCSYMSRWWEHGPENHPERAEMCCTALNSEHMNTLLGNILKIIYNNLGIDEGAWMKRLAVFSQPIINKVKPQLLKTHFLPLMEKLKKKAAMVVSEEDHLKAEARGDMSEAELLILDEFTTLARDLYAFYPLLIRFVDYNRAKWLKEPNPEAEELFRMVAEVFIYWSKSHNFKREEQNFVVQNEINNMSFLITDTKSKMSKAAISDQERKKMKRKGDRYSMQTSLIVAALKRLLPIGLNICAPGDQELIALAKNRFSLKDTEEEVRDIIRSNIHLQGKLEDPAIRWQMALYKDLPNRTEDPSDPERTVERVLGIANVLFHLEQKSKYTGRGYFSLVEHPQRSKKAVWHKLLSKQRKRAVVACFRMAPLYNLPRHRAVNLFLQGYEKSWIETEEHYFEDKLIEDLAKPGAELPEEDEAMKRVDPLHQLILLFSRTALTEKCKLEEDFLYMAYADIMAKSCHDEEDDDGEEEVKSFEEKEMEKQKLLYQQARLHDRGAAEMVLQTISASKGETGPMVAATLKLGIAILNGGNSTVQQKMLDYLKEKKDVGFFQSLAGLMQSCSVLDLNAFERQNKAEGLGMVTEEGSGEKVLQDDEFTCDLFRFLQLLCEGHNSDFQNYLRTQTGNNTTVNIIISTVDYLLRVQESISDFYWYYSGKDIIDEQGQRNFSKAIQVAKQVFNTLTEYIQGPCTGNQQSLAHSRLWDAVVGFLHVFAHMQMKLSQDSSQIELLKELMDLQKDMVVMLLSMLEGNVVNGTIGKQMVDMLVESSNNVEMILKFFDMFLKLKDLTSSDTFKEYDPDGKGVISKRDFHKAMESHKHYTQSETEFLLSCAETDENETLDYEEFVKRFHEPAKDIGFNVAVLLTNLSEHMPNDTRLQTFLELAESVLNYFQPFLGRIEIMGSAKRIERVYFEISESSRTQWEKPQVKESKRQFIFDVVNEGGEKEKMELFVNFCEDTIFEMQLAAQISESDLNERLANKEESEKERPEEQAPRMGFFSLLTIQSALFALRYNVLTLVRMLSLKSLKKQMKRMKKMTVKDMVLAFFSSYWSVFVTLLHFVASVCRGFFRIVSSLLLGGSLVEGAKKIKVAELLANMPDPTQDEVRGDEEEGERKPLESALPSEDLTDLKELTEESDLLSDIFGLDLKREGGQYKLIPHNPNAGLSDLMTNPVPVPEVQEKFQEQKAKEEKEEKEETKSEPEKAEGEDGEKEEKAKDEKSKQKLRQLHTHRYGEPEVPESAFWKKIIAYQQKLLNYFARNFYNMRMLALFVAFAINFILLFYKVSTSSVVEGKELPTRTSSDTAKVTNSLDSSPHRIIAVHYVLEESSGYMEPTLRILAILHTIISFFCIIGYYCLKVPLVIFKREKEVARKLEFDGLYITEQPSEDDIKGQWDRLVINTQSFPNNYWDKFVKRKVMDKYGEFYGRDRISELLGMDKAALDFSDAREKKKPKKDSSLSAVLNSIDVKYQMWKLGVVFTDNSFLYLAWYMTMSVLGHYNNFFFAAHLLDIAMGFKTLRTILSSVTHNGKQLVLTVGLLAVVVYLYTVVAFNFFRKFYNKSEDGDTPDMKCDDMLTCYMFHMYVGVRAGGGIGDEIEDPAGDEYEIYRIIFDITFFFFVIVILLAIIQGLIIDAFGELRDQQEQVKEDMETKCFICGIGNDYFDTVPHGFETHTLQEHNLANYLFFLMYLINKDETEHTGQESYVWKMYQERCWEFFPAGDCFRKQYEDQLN
Protocol: as §1

STIM1 = biological target: T2, STIM1 (Mus musculus, UniProt P70302); experiment: Co-immunoprecipitation of STIM1 with anti-Aβ antibody from HT-22 lysates, Western blot; type: binding; settings: 250 nM Aβ(1-42), HT-22 cell lysates
T2 construct: endogenous in cells; host or cells: HT-22 cell lysate
Protocol: The HT-22 cells were lysed in a buffer: 25 mM of Tris(hydroxymethyl)aminomethane–HCl, pH 7.4, 150 mM of NaCl, 5 mM of ethylenediaminetetraacetic acid, 50 mM of NaF, 5 mM of NaVO3, 0.25% of Triton X-100, and 5 mM of methyl-β-cyclodextrin, supplemented with 1× […]^TM protease inhibitor cocktail. After cell centrifugation at 2000× g for 2 min at 4 °C, the supernatant was collected and supplemented with 50% glycerol. Bradford’s method was used to measure the protein concentration in HT22 lysates using the bovine serum albumin as the standard. The co-immunoprecipitation was carried out using the protein A/G PLUS-Agarose, following the instructions described by the manufacturer in the technical data sheet. […] Then, 10 μg of mouse anti-β-amyloid antibody was added to the Eppendorf tube and incubated for 1 h at 4 °C with continuous gentle shaking. Afterward, 50 μL of protein A/G PLUS-Agarose was added and incubated overnight at 4 °C with continuous shaking. […] The agarose beads were precipitated by centrifugation at 2500× g for 5 min at 4 °C in a refrigerated Eppendorf microcentrifuge. […] A centrifugation step (2500× g, 5 min at 4 °C) was performed in a refrigerated Eppendorf microcentrifuge after each washing step. […]

HT-22 cells [3] = experiment: Mitochondrial membrane potential, TMRE assay; type: cell-based, mouse
Protocol: Mitochondrial depolarization was monitored with the fluorescent dye TMRE, as previously described, with small changes. […] Then, the HT-22 culture dishes were placed in the thermostatic plate at 37 °C of the inverted epifluorescence microscope and the fluorescence kinetic was recorded at 556 nm excitation filter and a dichroic mirror of 580 nm with an emission filter of 590 nm and a time of exposure 0.01 s. To assess the level of the mitochondrial membrane depolarization, 5 μM of a potent mitochondrial oxidative phosphorylation uncoupler FCCP was added to the medium. The region of interest (ROI) tool of the HCImage software was used for the quantitative analysis. The average fluorescence intensity readings per pixel in the HT-22 cells were taken from several fields for a total number of 80 cells.

HT-22 cells [4] = experiment: Intracellular ROS, H2DCFDA oxidation; type: cell-based, mouse; settings: 2 μM Aβ(1-42), 10 μM H2DCFDA, p < 0.05
Protocol: For the detection of intracellular ROS levels, we measured the oxidation of H2DCFDA to the fluorescent compound dichlorofluorescein, as previously described, with minor modifications. […] Then, 10 μM of H2DCFDA was added to the medium and the fluorescence intensity was recorded every 15 s for 10 min with an excitation filter of 470 nm, and 510 nm dichroic mirror/520 nm emission filter, using an exposure time of 0.2 s.

HT-22 cells [5] = experiment: Cellular GSH level, monochlorobimane fluorescence; type: cell-based, mouse; settings: 2 μM Aβ(1-42), 2 h or 5 h; 10 μM MCB
Protocol: The cellular GSH level was monitored with MCB using fluorescence microscopy, as described in our previous work. Images were acquired with a Nikon Diaphot 300 epifluorescence microscope, with an excitation filter of 380 nm.
(A) Representative microscopy images
(B) Means of the average fluorescence intensity
Supplementary Figure S5. GSH levels are not altered after 2 h […]
37 ᵒC were washed once with MLocke’s K5 buffer and the plates were placed in the holder of the fluorescence microscope (37 ᵒC) for cell imaging before and after the addition of 10 μM MCB as described in the Material and Methods section.
Panel A: representative bright field and blue fluorescence images
(GS-MCB) acquired 2 min after MCB addition of untreated cells […]
exposure was 0.7 s and the scale bar inserted = 20 μm. Panel B: means of fluorescence intensity per pixel of HT-22 cells after 2 min of incubation with MCB (10 μM). The results shown are the […]
in GSH levels between untreated cells (control) and cells treated […]
(also on this page, place not known: 0 100 200 300 400 Fluorescenece (Intensity/pixel) µM Aβ(1-42) µM Aβ(1-42) n.s. n.s. Bright Blue Fluorescence Control 2h IJMS-1941218 field 2 2 of MCB 2 2 h 5 h) […]

HT-22 cells [6] = experiment: Resting cytosolic Ca2+ concentration, Fura2/Fluo3-loaded HT-22 cells; type: cell-based, mouse; settings: 2 μM Aβ(1-42), control 75 ± 8 nM, mean ± SEM of triplicates, n > 60 cells
Protocol: as §1, with “vehicle controls. […]” for “vehicle controls.”

[7] = test system: mature cerebellar granule neurons; settings: 2 h of incubation; cited from earlier work
PDI = test system: PDI; parameters: method as in earlier work; settings: up to 200 nM Aβ(1-42), HT-22 cell lysates, isomerase assay of ref 67; cited from earlier work

For `C[N+](C)(C)CCOC(N)=O` [carbachol], which “intracellular calcium response in the majority of the cells” value (HT22 cells) is on record?
The value was “almost negligible”.

Which “concentration of internalized Aβ(1-42) monomers” value (HT-22 cells [1]; 2 h) does the source give for “Aβ(1-42): Unlabeled amyloid β peptide (1-42), synthesized and supplied by StabVida” here?
The value was 62 ± 11 nM.

What about the “concentration of internalized Aβ(1-42) monomers” value (HT-22 cells [1]; 5 h) of the same compound?
The value was 135 ± 15 nM.

And the “inhibition of Ca2+ released from stores after Tg addition” value ([2]; 2 μM Aβ(1-42) 2 h plus 3 μM BTP2 15 min, mean ± SEM)?
The value was 42 ± 6%.

And the “inhibition of Ca2+ release from the stores after Tg addition, compared with control” value ([2]; 2 μM Aβ(1-42), 2 h, 37 °C, 2 μM Tg, Ca2+-free medium, ΔF/F0, mean ± SEM, n > 80 cells)?
Its value is 37 ± 7%.

And the “inhibition of Ca2+ entry through the plasma membrane after Ca2+ addition, compared with control” value ([2]; 2 μM Aβ(1-42), 2 h, 37 °C, 3 mM Ca2+ after Tg, ΔF/F0, mean ± SEM, n > 80 cells)?
Its value is 32 ± 6%.

And the “SOCE induced by Aβ(1-42) in the absence of Tg” value ([2]; HT-22 cells, no thapsigargin)?
Its value is “did not detect”.

And the “Tg-induced Ca2+ released from the stores, compared with cells treated only with Aβ(1-42)” value (RyR; 2 μM Aβ(1-42) 2 h plus 100 μM ryanodine)?
The value was “three-fold higher”.

And the “STIM1 co-immunoprecipitation with anti-Aβ(1-42) antibody” value (STIM1)?
Its value is “formation of STIM1-Aβ complexes”.

What about the “mitochondria membrane potential (TMRE ΔF/F0 before/after FCCP) versus control” value (HT-22 cells [3]; 2 μM Aβ(1-42), 2 h or 5 h, p > 0.05) of the same compound?
Its value is “not altering the mitochondria membrane potential”.

What about the “increase in ROS production compared with untreated cells” value (HT-22 cells [4]; 2 h) of the same compound?
The value was 1.3 fold.

What about the “increase in ROS production compared with untreated cells” value (HT-22 cells [4]; 5 h) of the same compound?
Its value is 1.7 fold.

What about the “GSH levels versus untreated cells” value (HT-22 cells [5]) of the same compound?
The value was “not significantly different”.

What about the “intracellular Ca2+ concentration [Ca2+]i” value (HT-22 cells [6]; 2 h) of the same compound?
The value was 81 ± 9 nM.

What about the “intracellular Ca2+ concentration [Ca2+]i” value (HT-22 cells [6]; 5 h) of the same compound?
The value was 82 ± 8 nM.

And the “internalized Aβ(1-42)” value [7]?
The value was “about 193 ± 21 nM”.

What about the “inhibition of PDI activity” value (PDI) of the same compound?
The value was “did not significantly inhibit”.

For ryanodine, which “increase of ER Ca2+ content (Tg-induced Ca2+ release from stores) versus control without ryanodine” value (RyR; 100 μM ryanodine, 1 h, 37 °C, control HT-22 cells, 2 μM Tg) is on record?
Its value is “about 2.2 fold”.

With `CC(=O)OCC[N+](C)(C)C` [acetylcholine] as the compound, how does the “fraction of HT22 cells showing intracellular calcium concentration peaks” value (HT22 cells; 100 μM acetylcholine, Fluo3-loaded cells) read?
Its value is “less than 25%”.

What about the “intracellular calcium response in the majority of the cells” value (HT22 cells) of the same compound?
Its value is “almost negligible”.

For `N#CC(C#N)=NNc1ccc(OC(F)(F)F)cc1` [FCCP, trifluoromethoxy carbonylcyanide phenylhydrazone], which “mitochondria membrane potential after addition (positive control of depolarization)” value (HT-22 cells [3]; 5 μM FCCP, TMRE-loaded HT-22 cells) is on record?
The value was “large decrease”.

With `Cc1nnsc1C(=O)Nc1ccc(-n2nc(C(F)(F)F)cc2C(F)(F)F)cc1` [BTP2, N-[4-[3,5-bis(trifluoromethyl)pyrazol-1-yl]phenyl]-4-methylthiadiazole-5-carboxamide] as the compound, how does the “Ca2+ released from the stores after addition of Tg versus control” value ([2]; 3 μM BTP2, 15 min, control HT-22 cells) read?
Its value is “no significative difference”.

What about the “decrease of Ca2+ entry through the plasma membrane relative to control without BTP2” value ([2]; 3 μM BTP2, 15 min preincubation, 37 °C, control HT-22 cells, mean ± SEM, n > 80 cells) of the same compound?
The value was 71 ± 8%.
